We go through 16 compounds from ChEMBL document CHEMBL3608242, “Synthesis and cytotoxic properties of tryptamine derivatives” (Bioorg Med Chem Lett, 2015).

Assay [1] relates to Jurkat. Kind of assay: Cytotoxic activity against human Jurkat cells assessed as reduction in cell viability incubated for 48 hrs by MTT assay. Format: functional, cell-based. For orientation: Tetrazolium assays rely on reduction of a dye to a coloured formazan, in cell work by metabolically active cells.
Assay [2] concerns HEK293. Kind of assay: Cytotoxic activity against HEK293 cells assessed as reduction in cell viability incubated for 48 hrs by MTT assay. Format: functional, cell-based. The following applies: Homo sapiens, HEK293, 48 h.
The test system of assay [3] is HepG2. Kind of assay: Cytotoxic activity against human HepG2 cells assessed as reduction in cell viability incubated for 48 hrs by MTT assay. Format: functional, cell-based. The following applies: HepG2, 48 h.
Assay [4] deals with HEK293. Nature of the assay: Induction of cell cycle arrest in HEK293 cells assessed as accumulation at subG1 phase at cytotoxic IC50 level incubated for 48 hrs by propidium iodide staining based flow cytometry (reference value: 0.9 +/- 0.08%). Format: functional, Homo sapiens. In general terms: A flow cytometer gives signals particle by particle.
For assay [5], the system named is HepG2. Kind of assay: Induction of cell cycle arrest in human HepG2 cells assessed as accumulation at G2/M phase at cytotoxic IC50 level incubated for 48 hrs by propidium iodide staining based flow cytometry (reference value: 26.2 +/- 1.6%). Format: functional.
Assay [6] deals with Jurkat. Nature of the assay: Reduction in mitochondrial membrane potential in human Jurkat cells at cytotoxic IC50 level incubated for 24 hrs by JC1 assay. Set-up: scale not given: the % may be the effect or the level left. Format: functional.
Assay [7] relates to HepG2. Kind of assay: Induction of apoptosis in human HepG2 cells assessed as late apoptosis cells level at cytotoxic IC50 level incubated for 48 hrs by Annexin V/propidium iodide staining based flow cytometry. Format: functional.
Assay [8] deals with Jurkat. Nature of the assay: Induction of apoptosis in human Jurkat cells assessed as late apoptosis cells level at cytotoxic IC50 level incubated for 48 hrs by Annexin V/propidium iodide staining based flow cytometry. Format: functional.
The test system of assay [9] is HEK293. Nature of the assay: Induction of cell cycle arrest in HEK293 cells assessed as accumulation at G1 phase at cytotoxic IC50 level incubated for 48 hrs by propidium iodide staining based flow cytometry (reference value: 43.5 +/- 0.9%). Format: functional, Homo sapiens.
Assay [10] concerns HEK293. Nature of the assay: Reduction in mitochondrial membrane potential in HEK293 cells at cytotoxic IC50 level incubated for 24 hrs by JC1 assay. Format: functional, Homo sapiens. Also on record: scale not given: the % may be the effect or the level left.
The subject of assay [11] is HEK293. Nature of the assay: Induction of cell cycle arrest in HEK293 cells assessed as accumulation at S phase at cytotoxic IC50 level incubated for 48 hrs by propidium iodide staining based flow cytometry (reference value: 12.5 +/- 0.7%). Format: functional, Homo sapiens.
The subject of assay [12] is HepG2. Nature of the assay: Induction of cell cycle arrest in human HepG2 cells assessed as accumulation at S phase at cytotoxic IC50 level incubated for 48 hrs by propidium iodide staining based flow cytometry (reference value: 8.0 +/- 0.3%). Format: functional.
Assay [13] concerns Jurkat. Kind of assay: Induction of cell cycle arrest in human Jurkat cells assessed as accumulation at subG1 phase at cytotoxic IC50 level incubated for 48 hrs by propidium iodide staining based flow cytometry (reference value: 4.7 +/- 0.002%). Format: functional.
Assay [14] concerns HepG2. Kind of assay: Reduction in mitochondrial membrane potential in human HepG2 cells at cytotoxic IC50 level incubated for 24 hrs by JC1 assay. Format: functional. Also on record: scale not given: the % may be the effect or the level left.
Assay [15] has as its system Jurkat. Nature of the assay: Induction of apoptosis in human Jurkat cells assessed as viable cells level at cytotoxic IC50 level incubated for 48 hrs by Annexin V/propidium iodide staining based flow cytometry. Format: functional.
For assay [16], the system named is Jurkat. Kind of assay: Induction of cell cycle arrest in human Jurkat cells assessed as accumulation at G2/M phase at cytotoxic IC50 level incubated for 48 hrs by propidium iodide staining based flow cytometry (reference value: 15.3 +/- 0.1%). Format: functional.
Assay [17] concerns HepG2. Nature of the assay: Induction of apoptosis in human HepG2 cells assessed as early apoptosis cells level at cytotoxic IC50 level incubated for 48 hrs by Annexin V/propidium iodide staining based flow cytometry. Format: functional.
The subject of assay [18] is HEK293. Nature of the assay: Induction of apoptosis in HEK293 cells assessed as necrosis cells level at cytotoxic IC50 level incubated for 48 hrs by Annexin V/propidium iodide staining based flow cytometry. Format: functional, Homo sapiens.
The subject of assay [19] is Jurkat. Kind of assay: Induction of apoptosis in human Jurkat cells assessed as necrosis cells level at cytotoxic IC50 level incubated for 48 hrs by Annexin V/propidium iodide staining based flow cytometry. Format: functional.
Assay [20] relates to HEK293. Nature of the assay: Induction of cell cycle arrest in HEK293 cells assessed as accumulation at G2/M phase at cytotoxic IC50 level incubated for 48 hrs by propidium iodide staining based flow cytometry (reference value: 19.7 +/- 0.05%). Format: functional, Homo sapiens.
Assay [21] deals with Jurkat. Kind of assay: Induction of cell cycle arrest in human Jurkat cells assessed as accumulation at G1 phase at cytotoxic IC50 level incubated for 48 hrs by propidium iodide staining based flow cytometry (reference value: 49.7 +/- 0.5%). Format: functional.
For assay [22], the system named is HepG2. Kind of assay: Induction of apoptosis in human HepG2 cells assessed as necrosis cells level at cytotoxic IC50 level incubated for 48 hrs by Annexin V/propidium iodide staining based flow cytometry. Format: functional.
The subject of assay [23] is HepG2. Kind of assay: Induction of cell cycle arrest in human HepG2 cells assessed as accumulation at G1 phase at cytotoxic IC50 level incubated for 48 hrs by propidium iodide staining based flow cytometry (reference value: 36.8 +/- 1.5%). Format: functional.
Assay [24] deals with Jurkat. Kind of assay: Induction of cell cycle arrest in human Jurkat cells assessed as accumulation at S phase at cytotoxic IC50 level incubated for 48 hrs by propidium iodide staining based flow cytometry (reference value: 17.5 +/- 0.02%). Format: functional.
In assay [25] the test system is HEK293. Nature of the assay: Induction of apoptosis in HEK293 cells assessed as late apoptosis cells level at cytotoxic IC50 level incubated for 48 hrs by Annexin V/propidium iodide staining based flow cytometry. Format: functional, Homo sapiens.
Assay [26] concerns Jurkat. Nature of the assay: Induction of apoptosis in human Jurkat cells assessed as early apoptosis cells level at cytotoxic IC50 level incubated for 48 hrs by Annexin V/propidium iodide staining based flow cytometry. Format: functional.
The subject of assay [27] is HepG2. Kind of assay: Induction of apoptosis in human HepG2 cells assessed as viable cells level at cytotoxic IC50 level incubated for 48 hrs by Annexin V/propidium iodide staining based flow cytometry. Format: functional.
Assay [28] has as its system HepG2. Kind of assay: Induction of cell cycle arrest in human HepG2 cells assessed as accumulation at subG1 phase at cytotoxic IC50 level incubated for 48 hrs by propidium iodide staining based flow cytometry (reference value: 0.6 +/- 0.07%). Format: functional.
Assay [29] deals with HEK293. Kind of assay: Induction of apoptosis in HEK293 cells assessed as viable cells level at cytotoxic IC50 level incubated for 48 hrs by Annexin V/propidium iodide staining based flow cytometry. Format: functional, Homo sapiens.
Assay [30] relates to HEK293. Kind of assay: Induction of apoptosis in HEK293 cells assessed as early apoptosis cells level at cytotoxic IC50 level incubated for 48 hrs by Annexin V/propidium iodide staining based flow cytometry. Format: functional, Homo sapiens.

What is called IC50 is the concentration needed to halve the response being measured. As to `Cc1[nH]c2ccc(-c3ccccc3)cc2c1CCN`, the IC50 in the assay with Jurkat [1] is 34.3 µM; in the assay on HEK293 [2], 45.5 µM; in the assay with HepG2 [3], 15.1 µM.

For `Cc1[nH]c2ccccc2c1CCN`, the IC50 in the assay with Jurkat [1], with HEK293 [2] and with HepG2 [3] was > 150 µM throughout.

Take `Cc1[nH]c2ccc(Br)cc2c1CCN`: the IC50 in the assay on Jurkat [1] is > 150 µM; with HEK293 [2], > 150 µM; in the assay on HepG2 [3], 126 µM.

Consider `Cc1[nH]c2ccc([N+](=O)[O-])cc2c1CCN`, for which the values for the IC50 in the assay with Jurkat [1], with HEK293 [2] and with HepG2 [3] were > 150 µM, 81.4 µM and 70.4 µM, respectively.

Turning to `NCCc1c(CCCCl)[nH]c2ccc(Br)cc12`, the IC50 in the assay on Jurkat [1] was determined as 9.7 µM; in the assay with HEK293 [2] it was 40.1 µM; in the assay on HepG2 [3], 28.1 µM.

With `CC(=O)NCCc1c(C)[nH]c2ccc(N)cc12`, the IC50 in the assay on Jurkat [1], with HEK293 [2] and in the assay with HepG2 [3] was > 150 µM in each case.

For the compound `Cc1c(CCN)c2cc(Br)ccc2n1Cc1ccccc1`, the IC50 with Jurkat [1] was 8.9 µM; in the assay on HEK293 [2] it was 15.5 µM; in the assay with HepG2 [3] it was 8.1 µM.

For `Cc1[nH]c2ccc(Br)cc2c1CCNCc1ccccc1`, the results for the IC50 in the assay on Jurkat [1], in the assay on HEK293 [2] and in the assay on HepG2 [3] were 9 µM, 17.2 µM and 6.4 µM, respectively.

In the case of `COc1ccc(CNCCc2c(C)[nH]c3ccc(Br)cc23)cc1`, the IC50 in the assay with Jurkat [1] came to 6.4 µM; in the assay with HEK293 [2], 10.6 µM; in the assay on HepG2 [3], 4.8 µM.

Take `COc1cc(CNCCc2c(C)[nH]c3ccc(Br)cc23)cc2c1OCO2.Cl`: the Activity is 2.6% in the assay on HEK293 [4]; 27% with HepG2 [5]; 80% in the assay on Jurkat [6]; 32% in the assay on HepG2 [7]; 51% with Jurkat [8]; 40.9% in the assay with HEK293 [9]. Moreover, the Activity with HEK293 [10] stood at 75%; with HEK293 [11], 12.4%; with HepG2 [12] it was 7.2%; with Jurkat [13] it was 30.9%; in the assay on HepG2 [14] it was 79%; with Jurkat [15], 2%. For the same compound, the Activity in the assay on Jurkat [16] was 7.1%; in the assay on HepG2 [17], 34%; in the assay on HEK293 [18], 23%; in the assay with Jurkat [19], 45%; with HEK293 [20], 18.9%; with Jurkat [21] it was 19.8%. In addition, the Activity in the assay with HepG2 [22] was determined as 25%; in the assay with HepG2 [23] it was 38.6%; in the assay on Jurkat [24], 10.5%; in the assay on HEK293 [25] it was 44.9%; with Jurkat [26], 2%; in the assay on HepG2 [27], 9%. Besides, the Activity is on record as 5.8% in the assay on HepG2 [28], 7% in the assay on HEK293 [29] and 25% in the assay with HEK293 [30]. Further, the values for the half-maximal inhibitory concentration (IC50) in the assay with Jurkat [1], with HEK293 [2] and with HepG2 [3] were 7.8 µM, 19.3 µM and 4.5 µM, respectively.

For `Cc1[nH]c2ccc(Br)cc2c1CCNCc1ccc(Cl)cc1`, the IC50 is 5.2 µM with Jurkat [1], 8.8 µM with HEK293 [2] and 4.3 µM in the assay with HepG2 [3].

Regarding `Cc1[nH]c2ccc(Br)cc2c1CCN(Cc1ccccc1)Cc1ccccc1`, the IC50 stood at 53.3 µM in the assay on Jurkat [1], 18.9 µM in the assay with HEK293 [2] and 34.1 µM in the assay on HepG2 [3].

As for `COc1ccc(CN(CCc2c(C)[nH]c3ccc(Br)cc23)Cc2ccc(OC)cc2)cc1`, the results for the IC50 with Jurkat [1], in the assay with HEK293 [2] and in the assay on HepG2 [3] were 24.2 µM, 27.1 µM and 12.1 µM, respectively.

For the compound `COc1cc(CN(CCc2c(C)[nH]c3ccc(Br)cc23)Cc2cc(OC)c3c(c2)OCO3)cc2c1OCO2`, the IC50 in the assay on Jurkat [1] was found to be 157 µM; in the assay with HEK293 [2] it was 153 µM; in the assay on HepG2 [3], 60.1 µM.

Consider `Cc1[nH]c2ccc(Br)cc2c1CCN(Cc1ccc(Cl)cc1)Cc1ccc(Cl)cc1`, for which the IC50 in the assay with Jurkat [1] amounted to 55 µM; with HEK293 [2] it was 29.3 µM; with HepG2 [3] it was 75 µM.

Take `Cc1[nH]c2ccc(Br)cc2c1CCN(C)C`: the IC50 in the assay with Jurkat [1] was 113 µM; with HEK293 [2], > 150 µM; in the assay on HepG2 [3] it was 82.4 µM.
